In the oligonucleotide strings, read from the 5' end, every base follows the letter of its sugar. An asterisk marks phosphorothioate; unmarked linkages are phosphodiester. Other units and linkages are bracketed, terminal groups are in braces. A string of capitals states the bases alone. e = 2'-O-(2-methoxyethyl) (MOE); [5mC] = 5-methylcytosine; d = 2'-deoxy (DNA)
Columns and labels:
[1] = test system: growth hormone receptor mRNA; assay: Growth hormone receptor mRNA levels in liver, two-week mouse study; format: in vivo
Experimental: (§1) A two-week study was done in similar fashion to the one-week study in Example 18, this time using ISIS 227446 at doses of 3, 5, 10, 20 and 30 mg/kg. The mismatch control was given at the same doses. Mice were treated with antisense compound or saline every other day for 14 days.
Growth hormone receptor mRNA levels in liver tissue samples from treated and untreated mice in this two-week study were assayed. The growth hormone receptor antisense inhibitor ISIS 227446 reduced growth hormone receptor mRNA levels in liver after the two-week study by 50% at the 20 mg/kg dose relative to saline control (p<0.001). The 30 mg/kg dose of ISIS 227446 yielded a 53% decrease in growth hormone receptor mRNA (p<0.0001). The mismatch control oligonucleotide ISIS 261303 (SEQ ID NO: 267), at 30 mg/kg, reduced growth hormone receptor mRNA levels by approximately 3%.

[2] = Body weight, growth and organ weights, 1 week pilot study; format: in vivo, mouse; conditions: 1 week study; g/total body weight
Experimental: Saline, antisense, mismatch control and octreotide samples were prepared, and coded for blinding. Animals were given a subcutaneous dose of saline every second day, and mismatch control or antisense with administration on days 0, 2, 4, 6. Animals were given twice daily doses of 25 μg octreotide. Animals were housed 4 per cage, for the duration of one week. They had access to a pre-determined quantity of standard mouse food and water at all times throughout the experiment. They were housed in a quiet, temperature- and humidity-maintained environment for the entirety of the study. At day 0 and before treatment on each day or second day, the animals had their body weight and food intake measured, enabling the correct dose of agent to be administered. The animals were monitored closely for any changes in fur, skin, eye, locomotion or other changes in behavior. No problems were observed. Every second day from day −7 to day 7 body weight and food intake were measured.
The serum remaining following the insulin-like growth factor-1 assay was isolated and stored at −80° C. The whole liver was removed rapidly for weighing and snap-frozen in labelled aluminum parcels by submersion in liquid-nitrogen. […]
This confirms published results of others. […] Weight was measured in two ways: weight trend (live animal), and final carcass weight. […]

serum IGF-I = assay: Serum IGF-I, two-week mouse study; format: in vivo; conditions: for % decrease relative to 3 mg/kg ISIS 227446: day 14
Experimental: as §1
P-values were determined by t-test.

acaaagatccatacctgaga (eA*e[5mC]*eA*eA*eA*dG*dA*dT*d[5mC]*d[5mC]*dA*dT*dA*d[5mC]*d[5mC]*eT*eG*eA*eG*eA; antisense) [ISIS 227446]
reduction of growth hormone receptor mRNA levels in liver relative to saline control ([1]; 20 mg/kg): 50%
decrease in growth hormone receptor mRNA in liver ([1]; 30 mg/kg): 53%
liver weight [2]: unaffected
Day 14 serum IGF-I (serum IGF-I; 3 mg/kg every other day for 14 days): 214 ng/mL
effect on serum IGF-I levels (serum IGF-I; 3 mg/kg, 14 days, equivalent to saline control (separate experiment)): no effect
% decrease relative to 3 mg/kg ISIS 227446 (serum IGF-I; 3 mg/kg): 0%
Day 14 serum IGF-I (serum IGF-I; 5 mg/kg every other day for 14 days): 194 ng/mL
% decrease relative to 3 mg/kg ISIS 227446 (serum IGF-I; 5 mg/kg): 9%
Day 14 serum IGF-I (serum IGF-I; 10 mg/kg every other day for 14 days): 130 ng/mL
% decrease relative to 3 mg/kg ISIS 227446 (serum IGF-I; 10 mg/kg): 39%
Day 14 serum IGF-I (serum IGF-I; 20 mg/kg every other day for 14 days): 122 ng/mL
% decrease relative to 3 mg/kg ISIS 227446 (serum IGF-I; 20 mg/kg): 43%
Day 14 serum IGF-I (serum IGF-I; 30 mg/kg every other day for 14 days): 126 ng/mL
% decrease relative to 3 mg/kg ISIS 227446 (serum IGF-I; 30 mg/kg): 41%
decrease in serum IGF-I levels compared to 3 mg/kg (serum IGF-I; >10 mg/kg, 14 days): 39-43%
